This note sets out measurements from ChEMBL document CHEMBL5661943, “ASAP - In vitro antiviral effect” (2024).

pEC50: −log10 of the molar value. “And” between values parts separate entries of the source, which are not always exact repeats. Identical values can stand only once.

For test [1], the system named is Zika virus. Description: EC50 is reported via analysis of immunofluorescence staining. The assay has been performed by Icahn School of Medicine at Mount Sinai. The test is classed as functional, organism-based, Chlorocebus sabaeus, VeroE6/TMPRSS2. Conditions: for EC90: P-gp concentration 2 uM, P-gp inhibitor Elacidar.
The test system of test [2] is dengue virus type 2. Put plainly: Functional assay to measure dose dependent changes in antiviral-drug inhibitory efficacy against Dengue virus type 2 New Guinea C in Vero E6 miRFP670 cells (cotreated with P-gp inhibitor, CP100356). Cells are treated with antiviral candidates that are serially diluted, following infection, cells are fixed. EC50 is reported via analysis of fluorescence intensity using high-content imager. The …. In kind it is organism-based, Chlorocebus sabaeus, Vero C1008. The settings on record: for EC90: P-gp concentration 500 nM, P-gp inhibitor CP100356.

In test [3] the test system is Zika virus. Description: Functional CPE-based assay to measure dose dependent changes in antiviral-drug inhibitory efficacy against Zika virus MR766 in Vero E6 miRFP670 cells (cotreated with P-gp inhibitor, CP100356). Cells are treated with antiviral candidates that are serially diluted. EC50 is reported via analysis of MTS assay as a readout of CPE. The assay has been performed by KU Leuven. The test is classed as organism-based, Chlorocebus sabaeus, Vero C1008. The settings on record: for EC90: Baseline response 0 %, Maximum response 100 %, P-gp concentration 500 nM, P-gp inhibitor CP100356.

The test system of test [4] is dengue virus type 2. Put plainly: Functional immunofluorescence assay to measure dose dependent changes in antiviral-drug inhibitory efficacy against Dengue virus type 2 Thailand/16681/84 in Vero E6/TMPRSS2 cells (cotreated with P-gp inhibitor, Elacridar). Cells are treated with antiviral candidates that are serially diluted, following infection, cells are fixed. EC50 is reported via analysis of immunofluorescence staining. The assay has been performed by Icahn School of Medicine at Mount Sinai. The test is classed as organism-based, Chlorocebus sabaeus, VeroE6/TMPRSS2. The settings on record: for EC90: P-gp concentration 2 uM, P-gp inhibitor Elacidar.

On to `COCCNC(=O)[C@H](Nc1ccc2c(c1)CNC2)c1cc(Cl)cc(C2CC2)c1`, for which the EC90 – broadly, the point of the concentration-response curve where the effect stands at 90% – with Zika virus [1] (Baseline response 0 %, Hill slope -0.71, Maximum measured 110.043 %, Maximum response 100 %, Minimum measured 53.247 %, R squared 0.662) was > 5.56 µM; with Zika virus [1] (Zika virus, VeroE6/TMPRSS2, Baseline response 0 %, Hill slope -0.244, Maximum measured 65.627 %, Maximum response 50 %, Minimum measured 21.531 %, R squared 0.09) it was > 5.56 µM; in the test on dengue virus type 2 [2] (Dengue virus, Vero C1008, Maximum measured 154.141 %, Minimum measured 87.25 %), > 50 µM; in the test on dengue virus type 2 [2] (Dengue virus, Vero C1008, Baseline response 0 %, Hill slope -1.76, Maximum measured 106.994 %, Maximum response 100 %, Minimum measured 48.696 %, R squared 0.783) it was > 50 µM; in the test with Zika virus [3] (EC90 CI (lower) 3.438 uM, EC90 CI (upper) 13.705 uM, Hill slope 5.727, Maximum measured 103.141 %, Minimum measured 2.231 %, R squared 0.527), 6.86 µM; in the test with Zika virus [3] (Hill slope 2.264, Maximum measured 83.807 %, Minimum measured -2.671 %, R squared 0.978), > 50 µM. The pEC50 (commonly the negative decadic logarithm of the EC50, by convention in mol/L) in the test with Zika virus [1] (Zika virus, VeroE6/TMPRSS2) was < 5.26; with dengue virus type 2 [2] (Dengue virus, Vero C1008), 4.40; in the test with dengue virus type 2 [2] (vero c1008) it was < 4.30; in the test on Zika virus [3] (vero c1008), 4.59 and 5.33.
`Nc1cc(Cl)cc(C(=O)Nc2ccc3c(c2)CNC3)c1N`: the pEC50 is < 4.30 with dengue virus type 2 [2] (Dengue virus, Vero C1008); < 4.30 with Zika virus [3] (Zika virus, Vero C1008); 4.38 in the test on dengue virus type 2 [4] (Dengue virus, VeroE6/TMPRSS2). Moreover, the EC90 with dengue virus type 2 [2] (Dengue virus, Vero C1008, Baseline response 0 %, Hill slope 0.309, Maximum measured 103.631 %, Maximum response 100 %, Minimum measured 71.641 %, R squared 0.1) was > 50 µM; with Zika virus [3] (Zika virus, Vero C1008, Hill slope 0.699, Maximum measured 36.917 %, Minimum measured 3.264 %, R squared 0.811), > 50 µM; with dengue virus type 2 [4] (Dengue virus, VeroE6/TMPRSS2, Baseline response 0 %, Hill slope -3.096, Maximum measured 144.717 %, Maximum response 100 %, Minimum measured 36.673 %, R squared 0.131), > 50 µM.
Regarding `O=C(Nc1ccc2c(c1)CNC2)c1cc(Br)cc2[nH]c([C@H]3CCOC3)nc12`, the pEC50 in the test on Zika virus [1] (Zika virus, VeroE6/TMPRSS2) was < 5.26; in the test on dengue virus type 2 [2] (Dengue virus, Vero C1008), < 5.51; with Zika virus [3] (Zika virus, Vero C1008), 6.04. Also, the EC90 in the test on Zika virus [1] (Zika virus, VeroE6/TMPRSS2, Maximum measured 90.854 %, Minimum measured 45.403 %) was > 5.56 µM; in the test with dengue virus type 2 [2] (Dengue virus, Vero C1008, Baseline response 0 %, Hill slope -2.03, Maximum measured 96.655 %, Maximum response 100 %, Minimum measured 50.768 %, R squared 0.853) it was > 3.12 µM; with Zika virus [3] (Zika virus, Vero C1008, Hill slope 2.359, Maximum measured 80.04 %, Minimum measured 15.463 %, R squared 0.714), > 1.56 µM.
Take `N#C[C@H](Nc1ccc2c(c1)CNC2)c1cc(Cl)cc(C2CC2)c1`: the pEC50 in the test with dengue virus type 2 [2] (Dengue virus, Vero C1008) was 4.34; in the test on Zika virus [3] (Zika virus, Vero C1008), 4.71; in the test with dengue virus type 2 [4] (Dengue virus, VeroE6/TMPRSS2), < 4.78. The concentration for an effect of 90% (EC90) in the test with dengue virus type 2 [2] (Dengue virus, Vero C1008, Baseline response 0 %, Hill slope -4.312, Maximum measured 125.602 %, Maximum response 100 %, Minimum measured 40.399 %, R squared 0.668) is > 50 µM; with Zika virus [3] (Zika virus, Vero C1008, Hill slope 4.333, Maximum measured 75.439 %, Minimum measured -2.703 %, R squared 0.979) it was > 25 µM; in the test with dengue virus type 2 [4] (Dengue virus, VeroE6/TMPRSS2, Maximum measured 136.887 %, Minimum measured 85.602 %), > 16.7 µM.
Turning to `CCc1cc(Cl)cc(C(=O)Nc2ccc3c(c2)CNC3)c1`, the pEC50 in the test with dengue virus type 2 [4] (Dengue virus, VeroE6/TMPRSS2) is < 4.78. The EC90 with dengue virus type 2 [4] (Dengue virus, VeroE6/TMPRSS2, Baseline response 0 %, Hill slope -0.226, Maximum measured 109.554 %, Maximum response 100 %, Minimum measured 84.826 %, R squared 0.106) is > 16.7 µM.
In the case of `O=C(Nc1ccc2c(c1)CNC2)c1cc(Cl)cc2[nH]c(-c3c[nH]c(=O)c(Br)c3)nc12`, the pEC50 in the test on dengue virus type 2 [2] (Dengue virus, Vero C1008) was < 4.30; in the test on Zika virus [3] (Zika virus, Vero C1008) it was < 4.30. The EC90 in the test on dengue virus type 2 [2] (Dengue virus, Vero C1008, Maximum measured 259.566 %, Minimum measured 84.768 %) is > 50 µM; with Zika virus [3] (Zika virus, Vero C1008, Hill slope 0.525, Maximum measured 33.05 %, Minimum measured 2.151 %, R squared 0.865) it was > 50 µM.
In the case of `c1ccc(-c2csc(C3CCN(Cc4c[nH]c5ccccc45)CC3)n2)cc1`, the EC90 with Zika virus [1] (Baseline response 0 %, Hill slope -0.213, Maximum measured 87.861 %, Maximum response 100 %, Minimum measured 39.067 %, R squared 0.218) was > 1.85 µM; in the test on Zika virus [1] (Zika virus, VeroE6/TMPRSS2, Baseline response 0 %, Hill slope -0.414, Maximum measured 90.11 %, Maximum response 100 %, Minimum measured 29.783 %, R squared 0.361), > 3.33 µM; with dengue virus type 2 [4] (Dengue virus, VeroE6/TMPRSS2, Maximum measured 77.936 %, Minimum measured 57.835 %), > 3.33 µM; in the test on dengue virus type 2 [4] (Dengue virus, VeroE6/TMPRSS2, Baseline response 0 %, Hill slope -0.326, Maximum measured 104.724 %, Maximum response 100 %, Minimum measured 54.484 %, R squared 0.233) it was > 1.85 µM. The pEC50 in the test with Zika virus [1] (Zika virus, VeroE6/TMPRSS2) was 6.04; with Zika virus [1] (veroe6/tmprss2), 5.96; in the test with dengue virus type 2 [4] (Dengue virus, VeroE6/TMPRSS2) it was < 5.48; with dengue virus type 2 [4] (veroe6/tmprss2), < 5.73.
As for `CCOc1cccc(-c2ccc(S(=O)(=O)Nc3ccc(Cl)cc3C(=O)O)cc2)c1`, the EC90 in the test on Zika virus [1] (Baseline response 0 %, Hill slope -0.264, Maximum measured 100.253 %, Maximum response 100 %, Minimum measured 37.313 %, R squared 0.296) was > 16.7 µM; with Zika virus [1] (Zika virus, VeroE6/TMPRSS2, Baseline response 0 %, Hill slope -0.107, Maximum measured 149.039 %, Maximum response 100 %, Minimum measured 60.172 %, R squared 0.014) it was > 10 µM; in the test with dengue virus type 2 [4] (Dengue virus, VeroE6/TMPRSS2, Maximum measured 86.49 %, Minimum measured 33.39 %), > 3.33 µM; with dengue virus type 2 [4] (Dengue virus, VeroE6/TMPRSS2, Maximum measured 135.635 %, Minimum measured 86.345 %) it was > 16.7 µM. Further, the pEC50 in the test on Zika virus [1] (Zika virus, VeroE6/TMPRSS2) was < 5.00; in the test on Zika virus [1] (veroe6/tmprss2), 5.01; in the test with dengue virus type 2 [4] (veroe6/tmprss2), < 4.78.
Consider `NCc1cccc(NC(=O)c2cc(Cl)cc(N3CCCC3=O)c2)c1`, for which the EC90 was > 10 µM in the test with Zika virus [1] (Baseline response 0 %, Hill slope 0.118, Maximum measured 129.177 %, Maximum response 100 %, Minimum measured 53.613 %, R squared 0.041); > 50 µM in the test on Zika virus [1] (Baseline response 0 %, Hill slope -0.203, Maximum measured 140.608 %, Maximum response 100 %, Minimum measured 78.837 %, R squared 0.028); > 10 µM in the test on dengue virus type 2 [4] (Dengue virus, VeroE6/TMPRSS2, Maximum measured 120.219 %, Minimum measured 55.49 %); > 50 µM in the test with dengue virus type 2 [4] (Dengue virus, VeroE6/TMPRSS2, Baseline response 0 %, Hill slope 0.068, Maximum measured 98.172 %, Maximum response 100 %, Minimum measured 58.193 %, R squared 0.052). For the same molecule, the pEC50 in the test with Zika virus [1] (veroe6/tmprss2) and in the test on dengue virus type 2 [4] (veroe6/tmprss2) was < 4.30 in each case.
As to `NCc1cccc(NC(=O)c2cc(Cl)cc(NC(=O)OCc3ccccc3)c2)c1`, the EC90 in the test with Zika virus [1] (Baseline response 0 %, Hill slope -0.215, Maximum measured 128.419 %, Maximum response 100 %, Minimum measured 50.213 %, R squared 0.105) is > 3.33 µM; in the test with Zika virus [1] (Baseline response 0 %, Hill slope -0.764, Maximum measured 71.895 %, Maximum response 50 %, Minimum measured 1.714 %, R squared 0.465), > 16.7 µM; in the test with Zika virus [1] (Baseline response 0 %, Hill slope -1.05, Maximum measured 125.373 %, Maximum response 100 %, Minimum measured 37.992 %, R squared 0.488), > 5.56 µM; in the test with dengue virus type 2 [4] (Baseline response 0 %, Hill slope 0.299, Maximum measured 124.416 %, Maximum response 100 %, Minimum measured 54.583 %, R squared 0.188), > 10 µM; in the test on dengue virus type 2 [4] (Baseline response 0 %, Hill slope -0.071, Maximum measured 76.87 %, Maximum response 100 %, Minimum measured 49.245 %, R squared 0.036), > 1.85 µM; in the test on dengue virus type 2 [4] (Baseline response 0 %, Hill slope -0.258, Maximum measured 121.337 %, Maximum response 100 %, Minimum measured 68.392 %, R squared 0.156) it was > 5.56 µM. For the same molecule, the pEC50 in the test with Zika virus [1] (veroe6/tmprss2) is < 5.48 and 5.69 and 5.92; with dengue virus type 2 [4] (veroe6/tmprss2), < 5.00.
As to `NCc1cccc(NC(=O)c2cc(Cl)cc3c2CCC3)c1`, the pEC50 in the test with Zika virus [1] (Zika virus, VeroE6/TMPRSS2) was < 4.78; in the test on dengue virus type 2 [4] (Dengue virus, VeroE6/TMPRSS2), < 5.00; in the test on dengue virus type 2 [4] (veroe6/tmprss2), < 4.78. Besides, the EC90 in the test on Zika virus [1] (Zika virus, VeroE6/TMPRSS2, Maximum measured 83.197 %, Minimum measured 51.618 %) was > 16.7 µM; in the test on dengue virus type 2 [4] (Dengue virus, VeroE6/TMPRSS2, Maximum measured 223.993 %, Minimum measured 74.273 %), > 16.7 µM; in the test with dengue virus type 2 [4] (Dengue virus, VeroE6/TMPRSS2, Baseline response 0 %, Hill slope 0.162, Maximum measured 165.889 %, Maximum response 100 %, Minimum measured 52.995 %, R squared 0.068), > 10 µM.
